The target of assay [1] is T1, Human bradykinin B2 receptor aequorin cell line (Homo sapiens, UniProt P30411).
T1 sequence (P30411 1-391): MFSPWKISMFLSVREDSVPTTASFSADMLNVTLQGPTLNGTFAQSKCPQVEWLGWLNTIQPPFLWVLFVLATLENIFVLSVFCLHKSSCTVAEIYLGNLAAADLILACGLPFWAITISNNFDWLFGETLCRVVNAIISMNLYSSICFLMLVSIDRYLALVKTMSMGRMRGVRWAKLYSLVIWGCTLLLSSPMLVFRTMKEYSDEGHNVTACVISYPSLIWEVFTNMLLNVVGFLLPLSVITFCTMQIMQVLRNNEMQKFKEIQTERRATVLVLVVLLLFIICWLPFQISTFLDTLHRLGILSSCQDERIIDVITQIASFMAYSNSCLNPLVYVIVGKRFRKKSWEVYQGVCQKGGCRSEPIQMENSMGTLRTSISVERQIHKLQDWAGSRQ
Nature of the assay: Bradykinin B2 receptor antagonistic activity by intracellular calcium assay (Fluo-4, BK agonist). In kind it is cell-based. The settings on record: for IC50: human B2 receptor cells, Fluo-4 calcium assay, agonist BK at EC80, with washing step. As to the method: (§1) Human bradykinin B1 receptor cell line (Product #ES-091-C), Human bradykinin B2 receptor aequorin cell line (Product #ES-090-A), Fluo-4 calcium assay kits (Molecular Probes).
(§2) Agonist for B1 receptor cell line is Lys-[Des-Arg9]-Bradykinin (LDBK) and antagonist is R715. Agonist for B2 receptor cell line is BK (bradykinin) and antagonist is HOE140. All the agonist and antagonist were procured from TOCRIS. Dye loading solution was prepared by adding 10 mL of assay buffer and 100 μL of the probenecid stock solution (provided in the Kit) to one bottle of component A (dye concentrate). 0.4% Triton X-100 (4X) was used as positive control (PC) and was prepared by adding 38 uL of Triton X-100 in 10 mL of working assay buffer (WAB).
(§3) Human bradykinin B1 receptor cell line (B1) and human bradykinin B2 receptor aequorin cell line (B2) was procured from PerkinElmer, Waltham, Mass. B1 cells were cultured and maintained in Ham's F-12 medium (Gibco) supplemented with 10% fetal bovine serum (FBS) (Gibco) and 0.4 mg/ml Geneticin (Gibco) in a humidified incubator at 37° C. with 5% CO2. B2 cells were cultured and maintained in Ham's F-12 medium (Gibco) supplemented with 10% fetal bovine serum (FBS) (Gibco), 0.4 mg/ml Geneticin (Gibco) and 5 μg/ml Puromycin (Gibco) in a humidified incubator at 37° C. with 5% CO2. All the test compounds were weighed and dissolved in DMSO and a stock of 20 mM was prepared and stored at −20° C.
(§4) Bradykinin receptor antagonist screening assay was performed using Fluo-4 calcium assay kits by following the manufacturer's instruction. Briefly, approximately 30,000 of human either B1 or B2 cells were seeded in each well of a 96 black well plate. After 24 h, the growth media was removed and washed with 200 μL of assay buffer provided in the Fluo-4 calcium assay kits. Thereafter, 100 uL of Flu-4 dye-loading solution was added in each well of 96 well plate and incubated it at 37° C. for about 30 min. After about 30 minutes of incubation at room temperature, dye loading solution was removed and washed with 200 μL of WAB (mentioned in materials). Post washing, into 100 uL of WAB, 50 uL of WAB or 50 uL of cell line receptor specific antagonist (mentioned in materials) or test compound dilutions were added in 96 well plate. The plates were incubated for 20 min at room temperature with shaking at 300 rpm. At the end of the incubation time, the plates were inserted into the CLARIOstar microplate reader and % gain was adjusted. Thereafter, the plates were read at Ex/Em=494/516 nm for baseline RFU (Range 1). Thereafter, the microplate reader was paused at 11th cycle and 50 uL of 4× (EC80) cell line specific agonist (mentioned in materials) or PC dilution prepared in WAB was added and manually the plates were shaked for 5 sec. Again, the plates were read at Ex/Em=494/516 nm (Range 2).
(§5) Delta RFU was calculated using the formula:
(§6) Delta RFU=Range 2 avg RFU−Range 1 avg RFU
(§7) Based on the data the IC50 or Percent Inhibition of all the compounds was calculated.
(§8) Note: The above assay was performed using plate (flying) mode function of CLARIOstar.
(Calcium assays in cells follow changes in intracellular calcium, usually with a dye or a luminescent sensor.)

Assay [2] concerns the target T2, Human bradykinin B1 receptor cell line (Homo sapiens, UniProt P46663).
T2 sequence (P46663 1-353): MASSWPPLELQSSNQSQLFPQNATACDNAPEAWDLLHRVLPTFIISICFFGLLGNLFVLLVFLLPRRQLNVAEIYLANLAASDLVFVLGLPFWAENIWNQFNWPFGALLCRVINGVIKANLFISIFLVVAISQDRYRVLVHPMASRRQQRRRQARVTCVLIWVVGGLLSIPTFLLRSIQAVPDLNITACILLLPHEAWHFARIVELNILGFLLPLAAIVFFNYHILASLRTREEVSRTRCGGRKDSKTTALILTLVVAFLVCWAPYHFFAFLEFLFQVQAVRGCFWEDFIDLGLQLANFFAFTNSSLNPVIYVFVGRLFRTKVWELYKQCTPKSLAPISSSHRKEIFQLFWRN
Nature of the assay: Bradykinin B1 receptor antagonistic activity by intracellular calcium assay (Fluo-4, LDBK agonist). It is filed as cell-based. The settings on record: human B1 receptor cells, Fluo-4 calcium assay, agonist LDBK at EC80, with washing step. The protocol: as §1, §2, §3, §4, §5, §6, §7, §8

Broadly, the IC50 is the concentration needed to halve the response being measured.

Regarding `Nc1ccc(/N=N/c2ccc(O)cc2)c(N)n1` [Compound III], the concentration for half-maximal inhibition (IC50) in assay [1] came out at 21.3 µM; in assay [2] it was 27.1 µM.

`Nc1nc(N)c(/N=N/c2ccccc2)cc1O` [Compound II]: the IC50 in assay [1] came to 13.2 µM; in assay [2], 12.5 µM. In the case of `Nc1ccc(/N=N/c2ccccc2O)c(N)n1` [Compound IV], the 50% inhibitory concentration (IC50) amounted to 10.9 µM in assay [1] and 8.4 µM in assay [2]. Take `Nc1ccc(/N=N/c2ccccc2)c(N)n1` [Compound I]: the IC50 is 31.9 µM in assay [1] and 32.4 µM in assay [2].

On to `Nc1nc(N)c(/N=N/c2ccc(O)cc2)cc1O` [Compound V], for which the values for the IC50 in assay [1] and in assay [2] were above 100 µM and 29.5 µM, respectively. With HOE-140 [reference compound], in assay [1], the “IC50 without washing steps relative to IC50 with washing step” value was “approximately 15 fold”.

Source of the values: patent US20220317111A1, “BIOASSAY METHOD” (KASHIV BIOSCIENCES, LLC, priority 2021, published 2022).
